The source of these data is patent EP0495091B1 (Metabasis Therapeutics Inc., priority 1990, dated 1992).

One assay has as its system Isolated rat hearts. In words: Improved functional recovery in isolated hearts (Langendorff, post-ischemic LVDP). The settings on record: 5 µM in perfusion buffer; 30 min ischemia, 30 min reperfusion; number in brackets = hearts. The protocol:
Isolated rat hearts were cannulated via the ascending aorta and attached to a perfusion apparatus according to the method of Langendorff. The hearts were perfused at a constant pressure of 100 cm of H2O with a modified Krebs-Henseleit buffer (pH 7.4) at 37°C. As a measure of heart function, left ventricular developed pressure (LVDP) was continuously monitored. Following equilibration of the hearts for a period of 30 min., the hearts were subjected to reduced flow i.e. ischemia, by reducing the pressure to 10 cm of H2O for 30 min. Flow was then restored by returning the pressure to its original level (100 cm of H2O) for a further 30 min.

Assay [1] relates to longitudinal muscle from the guinea pig ileum. In words: Inhibition of stimulated contraction in isolated ileum. The settings on record: concentration which inhibited electrically stimulated contraction by 50%, read-out: IC50.
Protocol: Parallel platinum electrodes were used to deliver electrical current at 1 minute intervals at a voltage adequate to induce contraction of 90% of maximal.
Assay [2] has as its system coronary endothelial cells. Description: Inhibition of adenosine utilization in cell culture. It is filed as cell-based. The settings on record: for inhibition at 5 µM / inhibition at 50 µM: Endothelial cell, read-out: Inhibition of Adenosine Utilization (%). The method, then: Inhibition of adenosine utilization was determined by measuring the concentration of extracellular adenosine by scintillation counting following separation by thin layer chromatography (TLC).

For assay [3], the target named is T1, NBTI-specific adenosine transport site (Homo sapiens, UniProt Q99808).
T1 construct: incubated for 30 minutes with 0.5 mg neuronal membrane protein together with 0.5 nM [^3H]-NBTI; from tissue
T1 sequence (Q99808 1-456): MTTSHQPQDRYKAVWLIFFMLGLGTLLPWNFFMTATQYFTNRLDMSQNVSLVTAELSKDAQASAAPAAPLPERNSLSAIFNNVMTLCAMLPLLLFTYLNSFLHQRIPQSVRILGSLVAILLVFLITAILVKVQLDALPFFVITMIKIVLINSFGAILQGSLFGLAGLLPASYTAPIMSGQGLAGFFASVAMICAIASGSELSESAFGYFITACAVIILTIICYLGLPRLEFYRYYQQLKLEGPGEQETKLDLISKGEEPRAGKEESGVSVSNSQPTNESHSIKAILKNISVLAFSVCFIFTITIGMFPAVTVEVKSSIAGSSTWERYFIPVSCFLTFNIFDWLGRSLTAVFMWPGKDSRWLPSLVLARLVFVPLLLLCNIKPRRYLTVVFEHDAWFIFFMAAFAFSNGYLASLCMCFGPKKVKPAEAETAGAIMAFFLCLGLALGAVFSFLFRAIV
In words: [3H]-NBTI binding assay. The settings on record: 50% displacement of bound [3H]-NBTI (0.5 nM); neuronal membrane protein, 30 minutes, pH 7.4, room temperature; read-out: ED50 (the source's name). The method, then: Increasing concentrations of the test compounds were incubated for 30 minutes with 0.5 mg neuronal membrane protein together with 0.5 nM [^3H]-NBTI in a Tris buffer (pH 7.4) at room temperature. The assays were quenched and membranes collected by rapid filtration. Filters were then solubilized and radioactivity determined by scintillation counting.

The mark [4] stands for this setting: 5 µM test compound, 1 µM [3H] adenosine, 15 minutes.
Setting [5] is: 50 µM test compound, 1 µM [3H] adenosine, 15 minutes.

Each structure is given as a SMILES string. Counter-ions that a name gives are not always drawn. Like-named read-outs stand apart in the source and are kept apart here.

In the case of `NC(=O)c1ncn([C@@H]2O[C@H](CNCc3ccc(Cl)cc3)[C@@H](O)[C@H]2O)c1N` [Compound No. 76, 5-Amino-1-(5-(4-chlorobenzyl-amino)-5-deoxyβ-D-ribofuranosyl)imidazole-4-carboxamide], in the assay with Isolated rat hearts, the “Function Recovery % Baseline LVDP (% of hearts)” value is given as 74.0±2.5 (6) %.

Consider `Nc1c(C(=O)NCc2cccc(I)c2)ncn1[C@@H]1O[C@H](CO)[C@@H](O)[C@H]1O` [Compound No. 44, 5-Amino-1-β-D-ribofuranosyl-imidazole-4-N-[(3-iodophenyl)methyl]carboxamide], for which, in assay [1] (Cavia porcellus), the IC50 is 20 µM.

As to `Nc1c(C(=O)NCc2ccc(C(F)(F)F)cc2)ncn1[C@@H]1O[C@H](CO)[C@@H](O)[C@H]1O` [Compound No. 74], the “Function Recovery % Baseline LVDP (% of hearts)” value with Isolated rat hearts is 73.3±3.3 (6) %.

As for `NC(=O)c1ncn([C@@H]2O[C@H](CNCc3ccccc3)[C@@H](O)[C@H]2O)c1N` [Compound No. 66, 5-Amino-1-β-D-(5-benzylamino-5-deoxyribofuranosyl)imidazole-4-carboxamide], the “Function Recovery % Baseline LVDP (% of hearts)” value in the assay with Isolated rat hearts was 88.5±1.8 (5) %.

On to `Nc1c(C(=O)NCc2cccc(Cl)c2)ncn1[C@@H]1O[C@H](CO)[C@@H](O)[C@H]1O` [Compound No. 35, 5-amino-1-β-D-ribofuranosyl-imidazole-4-N[(3-chlorophenyl)methyl]carboxamide], for which, in assay [1] (Cavia porcellus), the IC50 came out at 60 µM.

For `Nc1c(C(=O)N2CCc3ccccc32)ncn1[C@@H]1O[C@H](CO)[C@@H](O)[C@H]1O` [Compound No. 48, 5-Amino-1-β-D-ribofuranosyl-imidazole-4-N-indolinylcarboxamide], in assay [2], the inhibition at 5 µM came to 23 ± 3% and the inhibition at 50 µM came out at 25 ± 2%. Further, the EC50 in assay [3] came out at 22 µM.

Consider `Nc1c(C(=O)N2CCN(c3ccc([N+](=O)[O-])cc3)CC2)ncn1[C@@H]1O[C@H](CO)[C@@H](O)[C@H]1O` [Compound No. 60, 5-Amino-4-[1-[4-(4-nitrophenyl)]piperazinocarbamoyl]-1-β-D-ribofuranosylimidazole], for which the EC50 in assay [3] was found to be 17 µM.

On to `Nc1c(C(=O)Nc2ccc([N+](=O)[O-])cc2)ncn1[C@@H]1O[C@H](CO)[C@@H](O)[C@H]1O` [Compound No. 58, 5-Amino-1-β-D-ribofuranosylimidazole-4-N-(4-nitrophenyl)carboxamide], for which the EC50 in assay [3] is 80 µM.

`CSC[C@H]1O[C@@H](n2cnc(C(N)=O)c2N)[C@H](O)[C@@H]1O` [Compound No. 54, 5-Amino-1-(5-deoxy-5-methylthio-β-D-ribofuranosyl)imidazole-4-carboxamide]: the EC50 in assay [3] amounted to 28 µM.

As to `Nc1c(C(=O)NC[C@H](O)c2ccc(O)c(O)c2)ncn1[C@@H]1O[C@H](CO)[C@@H](O)[C@H]1O` [compound 42, (R)-5-Amino-1-β-D-ribofurano-sylimidazole-4-N-[2-hydroxy-2-(3,4-dihydroxyphenyl)ethyl]carboxamide], the IC50 in assay [1] was determined as 6 µM.

For the compound `CNC[C@H]1O[C@@H](n2cnc(C(N)=O)c2N)[C@H](O)[C@@H]1O` [Compound No. 63, 5-Amino-1-β-D-(5-deoxy-5-methylaminoribofuranosyl)imidazole-4-carboxamide], the “Function Recovery % Baseline LVDP (% of hearts)” value in the assay with Isolated rat hearts was 79.7±4.8 (4) %.

On to `[N-]=[N+]=NC[C@H]1O[C@@H](n2cnc(C(=O)NCc3ccc(Cl)cc3)c2N)[C@H](O)[C@@H]1O` [Compound No. 52, 5-Amino-1-(5-azido-5-deoxy-β-D-ribofuranosyl)imidazole-4-N-[(4-chlorophenyl)methyl]-carboxamide], for which the “Function Recovery % Baseline LVDP (% of hearts)” value in the assay on Isolated rat hearts is listed as 86.0±2.5 (5) %. The inhibition at 5 µM in assay [2] (setting [4]) was determined as 56 ± 2%. The inhibition at 50 µM in assay [2] (setting [5]) came out at 71 ± 1%.

With `Cl.NC[C@H]1O[C@@H](n2cnc(C(=O)NC3CCCC3)c2N)[C@H](O)[C@@H]1O` [Compound No. 37, 5-Amino-1-(5-amino-5-deoxy-β-D-ribofuranosyl)imidazole-4-N-(cyclopentyl)carboxamide Hydrochloride], the “Function Recovery % Baseline LVDP (% of hearts)” value in the assay on Isolated rat hearts is on record as 71.9±3.0 (5) %.

Turning to `Nc1c(C(=O)Nc2ccc(Br)cc2)ncn1[C@@H]1O[C@H](CO)[C@@H](O)[C@H]1O` [Compound No. 55, 5-Amino-1-β-D-ribofuranosylimidazole-4-N-(4-bromophenyl)carboxamide], the EC50 in assay [3] was found to be 60 µM.

Take `Nc1c(C(=O)Nc2ccc(I)cc2)ncn1[C@@H]1O[C@H](CO)[C@@H](O)[C@H]1O` [Compound No. 57, 5-Amino-1-β-D-ribofuranosyl-imidazole-4-N-(4-iodophenyl)carboxamide]: the EC50 in assay [3] was found to be 80 µM.

For `Nc1c(C(=O)NCc2ccc(S(N)(=O)=O)cc2)ncn1[C@@H]1O[C@H](CO)[C@@H](O)[C@H]1O` [Compound No. 75, 5-Amino-1-β-D-ribofuranosylimidazole-4-N-[(4-sulfamoylphenyl)methyl]carboxamide], the “Inhibition of Adenosine Utilization (%)” value in assay [2] (setting [5]) turned out to be 30 ± 3%.

For `Nc1c(C(=O)NCc2ccc([N+](=O)[O-])cc2)ncn1[C@@H]1O[C@H](CI)[C@@H](O)[C@H]1O` [Compound No. 46, 5-Amino-1-(5-iodo-5-deoxy-β-D-ribofuranosyl)imidazole-4-N-[(4-nitrophenyl)methyl]carboxamide], in assay [2], the inhibition at 5 µM worked out at 19 ± 4% and the inhibition at 50 µM worked out at 30 ± 9%. In addition, the EC50 in assay [3] is 8 µM.

Regarding `C[C@H](NC(=O)c1ncn([C@@H]2O[C@H](CO)[C@@H](O)[C@H]2O)c1N)c1ccc([N+](=O)[O-])cc1` [Compound No. 50, (S)-5-Amino-1-β-D-ribofuranosylimidazole-4-N-[1-(4-nitrophenyl)ethyl]carboxamide], in assay [3], the EC50 is 28 µM.

As for `Nc1c(C(=O)NCCCc2ccc([N+](=O)[O-])cc2)ncn1[C@@H]1O[C@H](CO)[C@@H](O)[C@H]1O` [Compound No. 73], the entries for the “Inhibition of Adenosine Utilization (%)” value in assay [2] (setting [4]) and in assay [2] (setting [5]) were 16 ± 0% and 33 ± 9%, respectively.

For `C[C@@H](NC(=O)c1ncn([C@@H]2O[C@H](CO)[C@@H](O)[C@H]2O)c1N)c1ccc([N+](=O)[O-])cc1` [Compound No. 49], in assay [2], the inhibition at 5 µM amounted to 30 ± 4% and the inhibition at 50 µM is 33 ± 8%. The EC50 in assay [3] worked out at 7 µM.

With `CCN(CC)C[C@H]1O[C@@H](n2cnc(C(N)=O)c2N)[C@H](O)[C@@H]1O` [compound 65, 5-Amino-1-(5-deoxy-5-diethylaminoribo-β,D-furanosyl)imidazole-4-carboxamide], in the assay on Isolated rat hearts, the “Function Recovery % Baseline LVDP (% of hearts)” value is on record as 72.3±5.6 (4) %.

Turning to `Nc1c(C(=O)NC2CCC(NC(=O)c3ncn([C@@H]4O[C@H](CO)[C@@H](O)[C@H]4O)c3N)CC2)ncn1[C@@H]1O[C@H](CO)[C@@H](O)[C@H]1O` (stereo partly drawn) [Compound No. 69, N,N'-Bis-(5-Amino-1-β-D-ribofuranosylimidazole-4-carbonyl)-1,4-diaminocyclohexane], the “Function Recovery % Baseline LVDP (% of hearts)” value with Isolated rat hearts is 77.0±2.8 (6) %.

Regarding `Nc1c(C(=O)NCCCCCCNC(=O)c2ncn([C@@H]3O[C@H](CO)[C@@H](O)[C@H]3O)c2N)ncn1[C@@H]1O[C@H](CO)[C@@H](O)[C@H]1O` [Compound No. 68, N,N'-bis-(5-amino-1-β-D-ribofuranosylimidazole-4-carbonyl)-1,6-diaminohexane], the “Function Recovery % Baseline LVDP (% of hearts)” value in the assay on Isolated rat hearts is 75.3±2.2 (4) %.

Regarding `CN(C)c1ccc(CNC(=O)c2ncn([C@@H]3O[C@H](CO)[C@@H](O)[C@H]3O)c2N)cc1` [Compound No. 41, 5-Amino-1-β-D-ribofuranosylimidazole-4-N(4-dimethylaminobenzyl)-carboxamide hydrochloride], in assay [1], the IC50 came to 100 µM.

For `Nc1c(C(=O)Nc2ccccc2Cl)ncn1[C@@H]1O[C@H](CO)[C@@H](O)[C@H]1O` [Compound No. 64, 5-Amino-1-β-D-ribofuranosylimidazole-4-N-(2-chlorophenyl)carboxamide], the EC50 in assay [3] was 48 µM.

In the case of `C[C@H]1O[C@@H](n2c(S)nc(C(N)=O)c2N)[C@H](O)[C@@H]1O` [Compound No. 67, 5-Amino-2-thio-1-β-D-(5-deoxyribofuranosyl)imidazole-4-carboxamide], in the assay on Isolated rat hearts, the “Function Recovery % Baseline LVDP (% of hearts)” value is 77.4±5.7 (3) %.
